Test results reported in patent US10544147B2, “Purine inhibitors of human phosphatidylinositol 3-kinase delta” (MERCK SHARP & DOHME CORP., priority 2016, dated 2020).

Assays:
PI3Kdelta = PI3Kdelta (Homo sapiens (Human), UniProt O00329); assay: HTRF PI3K biochemical assay, delta isoform; settings: 0.3 nM enzyme, 100 uM ATP, 50 uM PIP2; form screened (neutral or TFA salt)
PI3Kalpha = PI3Kalpha (Homo sapiens (Human), UniProt P42336); assay: HTRF PI3K biochemical assay, alpha isoform (selectivity versus delta); settings: ratio PI3K-alpha IC50 value/PI3K-delta IC50 value
Chain of PI3Kalpha (P42336 whole entry, canonical isoform): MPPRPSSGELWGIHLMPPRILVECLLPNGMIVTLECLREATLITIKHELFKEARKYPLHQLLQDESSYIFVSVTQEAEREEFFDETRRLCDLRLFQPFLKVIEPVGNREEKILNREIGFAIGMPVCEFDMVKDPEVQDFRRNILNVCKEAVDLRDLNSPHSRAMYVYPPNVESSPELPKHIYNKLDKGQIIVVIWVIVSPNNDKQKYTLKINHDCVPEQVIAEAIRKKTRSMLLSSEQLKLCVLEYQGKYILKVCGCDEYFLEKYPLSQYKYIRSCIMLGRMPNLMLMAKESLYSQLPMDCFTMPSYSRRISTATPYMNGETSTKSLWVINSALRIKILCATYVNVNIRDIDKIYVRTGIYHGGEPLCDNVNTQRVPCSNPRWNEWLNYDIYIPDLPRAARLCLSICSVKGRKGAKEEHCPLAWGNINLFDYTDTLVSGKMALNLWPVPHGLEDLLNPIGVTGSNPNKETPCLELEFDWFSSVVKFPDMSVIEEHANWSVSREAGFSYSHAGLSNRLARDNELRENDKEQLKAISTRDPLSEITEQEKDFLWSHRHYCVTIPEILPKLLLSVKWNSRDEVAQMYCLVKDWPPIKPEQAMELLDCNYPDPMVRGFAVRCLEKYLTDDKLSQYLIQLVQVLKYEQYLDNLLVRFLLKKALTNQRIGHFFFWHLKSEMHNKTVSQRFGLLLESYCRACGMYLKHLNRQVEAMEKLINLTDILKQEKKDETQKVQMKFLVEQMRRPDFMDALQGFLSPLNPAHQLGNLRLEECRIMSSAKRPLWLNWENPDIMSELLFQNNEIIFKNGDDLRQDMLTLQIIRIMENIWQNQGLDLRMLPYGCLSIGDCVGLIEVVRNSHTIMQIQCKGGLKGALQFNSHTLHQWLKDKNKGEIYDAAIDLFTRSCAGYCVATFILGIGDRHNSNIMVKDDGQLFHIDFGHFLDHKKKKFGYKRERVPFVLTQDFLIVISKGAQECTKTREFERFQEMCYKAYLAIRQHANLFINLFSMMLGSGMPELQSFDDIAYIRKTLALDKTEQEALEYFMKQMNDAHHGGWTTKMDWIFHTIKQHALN
Chain of PI3Kalpha (P27986 whole entry partner, canonical isoform): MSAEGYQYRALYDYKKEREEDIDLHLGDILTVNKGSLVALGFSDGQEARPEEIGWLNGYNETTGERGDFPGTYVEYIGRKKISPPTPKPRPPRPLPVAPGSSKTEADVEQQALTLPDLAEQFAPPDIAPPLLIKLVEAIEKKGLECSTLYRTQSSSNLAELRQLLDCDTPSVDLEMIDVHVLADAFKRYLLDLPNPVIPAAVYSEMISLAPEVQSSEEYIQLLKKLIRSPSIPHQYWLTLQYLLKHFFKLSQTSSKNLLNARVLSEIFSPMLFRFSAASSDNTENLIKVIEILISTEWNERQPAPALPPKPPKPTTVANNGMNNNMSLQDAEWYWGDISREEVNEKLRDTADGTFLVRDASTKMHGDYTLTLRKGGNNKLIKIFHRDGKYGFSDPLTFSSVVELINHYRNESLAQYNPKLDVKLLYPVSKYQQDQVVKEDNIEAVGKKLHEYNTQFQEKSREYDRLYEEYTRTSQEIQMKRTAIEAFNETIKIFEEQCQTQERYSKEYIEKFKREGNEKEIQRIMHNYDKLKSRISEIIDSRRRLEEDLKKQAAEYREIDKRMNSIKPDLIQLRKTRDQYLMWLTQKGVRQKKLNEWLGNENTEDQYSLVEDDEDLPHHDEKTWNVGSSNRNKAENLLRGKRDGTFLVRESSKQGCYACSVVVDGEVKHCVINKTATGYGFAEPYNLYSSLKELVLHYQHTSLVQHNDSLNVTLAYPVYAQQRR

Chain of PI3Kdelta (O00329 whole entry, canonical isoform): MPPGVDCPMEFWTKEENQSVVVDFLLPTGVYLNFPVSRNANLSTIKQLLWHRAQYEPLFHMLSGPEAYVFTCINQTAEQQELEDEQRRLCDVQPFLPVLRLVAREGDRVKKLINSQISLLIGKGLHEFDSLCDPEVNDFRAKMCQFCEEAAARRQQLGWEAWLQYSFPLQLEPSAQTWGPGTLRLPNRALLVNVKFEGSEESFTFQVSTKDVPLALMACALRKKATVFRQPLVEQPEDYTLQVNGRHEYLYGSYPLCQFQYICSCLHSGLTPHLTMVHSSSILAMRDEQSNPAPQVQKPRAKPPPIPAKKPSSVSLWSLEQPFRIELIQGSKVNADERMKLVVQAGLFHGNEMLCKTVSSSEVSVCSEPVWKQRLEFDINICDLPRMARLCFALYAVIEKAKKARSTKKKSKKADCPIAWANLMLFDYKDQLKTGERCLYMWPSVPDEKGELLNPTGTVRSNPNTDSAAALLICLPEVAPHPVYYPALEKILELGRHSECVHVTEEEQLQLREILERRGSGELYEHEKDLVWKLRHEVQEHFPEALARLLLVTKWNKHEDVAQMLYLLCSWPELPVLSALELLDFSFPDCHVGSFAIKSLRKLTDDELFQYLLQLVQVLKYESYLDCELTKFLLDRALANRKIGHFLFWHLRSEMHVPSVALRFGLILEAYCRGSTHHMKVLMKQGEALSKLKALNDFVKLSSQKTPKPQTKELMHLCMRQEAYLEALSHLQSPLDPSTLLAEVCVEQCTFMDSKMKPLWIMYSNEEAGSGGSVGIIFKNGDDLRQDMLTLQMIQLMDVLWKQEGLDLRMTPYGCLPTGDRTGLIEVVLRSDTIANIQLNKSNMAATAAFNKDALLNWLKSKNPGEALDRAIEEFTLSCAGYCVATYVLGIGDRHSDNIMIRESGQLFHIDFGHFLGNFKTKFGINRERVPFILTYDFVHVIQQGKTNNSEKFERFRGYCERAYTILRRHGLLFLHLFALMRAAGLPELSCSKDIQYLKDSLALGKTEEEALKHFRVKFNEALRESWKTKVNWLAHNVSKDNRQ
Chain of PI3Kdelta (P27986 whole entry partner, canonical isoform): as the sequence (P27986 whole entry partner, canonical isoform) above

Question: What does the source list for `CCn1c(-c2cnc(C)nc2)nc2c(-c3ccc4c(c3)C3(CCCO3)C(=O)N4)ncnc21` (single isomer, unassigned) [Compound 3-30, (R or S)-5′-(9-ethyl-8-(2-methylpyrimidin-5-yl)-9H-purin-6-yl)-4,5-dihydro-3H-spiro[furan-2,3′-indolin]-2′-one]?
Answer: IC50 (PI3Kdelta): 156 nM; Relative Selectivity versus PI3Kalpha (PI3Kalpha): 5

Question: With `CCn1c(-c2cnc(C)nc2)nc2c(-c3ccc4c(c3)C3(CCCO3)C(=O)N4)ncnc21` (single isomer, unassigned) [Compound 3-31, (R or S)-5′-(9-ethyl-8-(2-methylpyrimidin-5-yl)-9H-purin-6-yl)-4,5-dihydro-3H-spiro[furan-2,3′-indolin]-2′-one] as the molecule, how does the IC50 (PI3Kdelta) read?
Answer: 99 nM

Question: And the “Relative Selectivity versus PI3Kalpha” value (PI3Kalpha)?
Answer: >10

Question: With `CCn1c(-c2cnc(C)nc2)nc2c(-c3ccc4c(c3)C3(CCCN3)C(=O)N4)ncnc21` (single isomer, unassigned) [Compound 3-32, (R or S)-5-(9-ethyl-8-(2-methylpyrimidin-5-yl)-9H-purin-6-yl)spiro[indoline-3,2′-pyrrolidin]-2-one] as the molecule, how does the IC50 (PI3Kdelta) read?
Answer: 169 nM

Question: What about the “Relative Selectivity versus PI3Kalpha” value (PI3Kalpha) of the same molecule?
Answer: >10

Question: Which IC50 (PI3Kdelta) does the source give for `CCn1c(-c2cnc(C)nc2)nc2c(-c3ccc4c(c3)C3(CCCN3)C(=O)N4)ncnc21` (single isomer, unassigned) [Compound 3-33, (R or S)-5-(9-ethyl-8-(2-methylpyrimidin-5-yl)-9H-purin-6-yl)spiro[indoline-3,2′-pyrrolidin]-2-one] here?
Answer: 67 nM

Question: And the “Relative Selectivity versus PI3Kalpha” value (PI3Kalpha)?
Answer: >10

Question: With `CCn1c(-c2cnc(C)nc2)nc2c(-c3ccc4c(c3)C3(CCN(C(C)C)C3)C(=O)N4)ncnc21` (single isomer, unassigned) [Compound 3-35, (R or S)-5-(9-ethyl-8-(2-methylpyrimidin-5-yl)-9H-purin-6-yl)-1′-isopropylspiro[indoline-3,3′-pyrrolidin]-2-one] as the molecule, how does the IC50 (PI3Kdelta) read?
Answer: 14 nM

Question: What about the “Relative Selectivity versus PI3Kalpha” value (PI3Kalpha) of the same molecule?
Answer: >10

Question: For `CCn1c(-c2cnc(C)nc2)nc2c(-c3ccc4c(c3)C3(CCN(C(C)C)C3)C(=O)N4)ncnc21` (single isomer, unassigned) [Compound 3-36, (R or S)-5-(9-ethyl-8-(2-methylpyrimidin-5-yl)-9H-purin-6-yl)-1′-isopropylspiro[indoline-3,3′-pyrrolidin]-2-one], which IC50 (PI3Kdelta) is on record?
Answer: 26 nM

Question: And the “Relative Selectivity versus PI3Kalpha” value (PI3Kalpha)?
Answer: >10

Question: What does the source list for `CCn1c(-c2cnc(C)nc2)nc2c(-c3ccc4c(c3)C(Cc3ccccc3)OC(=O)N4)ncnc21` (single isomer, unassigned) [Compound 4-1, (R or S)-4-benzyl-6-[9-ethyl-8-(2-methylpyrimidin-5-yl)-9H-purin-6-yl]-1,4-dihydro-2H-3,1-benzoxazin-2-one]?
Answer: IC50 (PI3Kdelta): 97 nM; Relative Selectivity versus PI3Kalpha (PI3Kalpha): 2

Question: How did the IC50 (PI3Kdelta) turn out when `CCn1c(-c2cnc(C)nc2)nc2c(-c3ccc4c(c3)C(Cc3ccccc3)OC(=O)N4)ncnc21` (single isomer, unassigned) [Compound 4-2, (R or S)-4-benzyl-6-[9-ethyl-8-(2-methylpyrimidin-5-yl)-9H-purin-6-yl]-1,4-dihydro-2H-3,1-benzoxazin-2-one] was run?
Answer: 35 nM

Question: And the “Relative Selectivity versus PI3Kalpha” value (PI3Kalpha)?
Answer: >10

Question: What does the source list for `CCn1c(-c2cnc(C)nc2)nc2c(-c3ccc4c(c3)C(C)(CC(C)C)OC(=O)N4)ncnc21` (single isomer, unassigned) [Compound 4-3, (R or S)-6-[9-ethyl-8-(2-methylpyrimidin-5-yl)-9H-purin-6-yl]-4-methyl-4-(2-methylpropyl)-1,4-dihydro-2H-3,1-benzoxazin-2-one]?
Answer: IC50 (PI3Kdelta): 59 nM; Relative Selectivity versus PI3Kalpha (PI3Kalpha): 6

Question: How did the IC50 (PI3Kdelta) turn out when `CCn1c(-c2cnc(C)nc2)nc2c(-c3ccc4c(c3)C(C)(CC(C)C)OC(=O)N4)ncnc21` (single isomer, unassigned) [Compound 4-4, (R or S)-6-[9-ethyl-8-(2-methylpyrimidin-5-yl)-9H-purin-6-yl]-4-methyl-4-(2-methylpropyl)-1,4-dihydro-2H-3,1-benzoxazin-2-one] was run?
Answer: 4 nM

Question: What about the “Relative Selectivity versus PI3Kalpha” value (PI3Kalpha) of the same molecule?
Answer: >10

Question: What does the source list for `CCn1c(-c2cnc(C)nc2)nc2c(-c3ccc4c(c3)C(C)(CC(C)C)NS4(=O)=O)ncnc21` (single isomer, unassigned) [Compound 4-5, (R or S)-9-ethyl-6-[3-methyl-3-(2-methylpropyl)-1,1-dioxido-2,3-dihydro-1,2-benzisothiazol-5-yl]-8-(2-methylpyrimidin-5-yl)-9H-purine]?
Answer: IC50 (PI3Kdelta): 6 nM; Relative Selectivity versus PI3Kalpha (PI3Kalpha): >10

Question: What does the source list for `CCn1c(-c2cnc(C)nc2)nc2c(-c3ccc4c(c3)C(C)(CC(C)C)NS4(=O)=O)ncnc21` (single isomer, unassigned) [Compound 4-6, (R or S)-9-ethyl-6-[3-methyl-3-(2-methylpropyl)-1,1-dioxido-2,3-dihydro-1,2-benzisothiazol-5-yl]-8-(2-methylpyrimidin-5-yl)-9H-purine]?
Answer: IC50 (PI3Kdelta): 55 nM; Relative Selectivity versus PI3Kalpha (PI3Kalpha): >10

Question: How did the IC50 (PI3Kdelta) turn out when `CCn1c(-c2cnc(C)nc2)nc2c(-c3ccc4c(c3)C(C)(CC(C)C)NC4=O)ncnc21` (single isomer, unassigned) [Compound 4-7, (R or S)-5-[9-ethyl-8-(2-methylpyrimidin-5-yl)-9H-purin-6-yl]-3-methyl-3-(2-methylpropyl)-2,3-dihydro-1H-isoindol-1-one] was run?
Answer: 7 nM

Question: And the “Relative Selectivity versus PI3Kalpha” value (PI3Kalpha)?
Answer: >10

Question: How did the IC50 (PI3Kdelta) turn out when `CCn1c(-c2cnc(C)nc2)nc2c(-c3ccc4c(c3)C(C)(CC(C)C)NC4=O)ncnc21` (single isomer, unassigned) [Compound 4-8, (R or S)-5-[9-ethyl-8-(2-methylpyrimidin-5-yl)-9H-purin-6-yl]-3-methyl-3-(2-methylpropyl)-2,3-dihydro-1H-isoindol-1-one] was run?
Answer: 128 nM

Question: And the “Relative Selectivity versus PI3Kalpha” value (PI3Kalpha)?
Answer: >10

Question: `CCn1c(-c2cnc(C)nc2)nc2c(-c3ccc4c(c3)C(Cc3ccccc3)NC4=O)ncnc21` (single isomer, unassigned) [Compound 4-9, (R or S)-3-benzyl-5-[9-ethyl-8-(2-methylpyrimidin-5-yl)-9H-purin-6-yl]-2,3-dihydro-1H-isoindol-1-one] was tested. Which IC50 (PI3Kdelta) did it give?
Answer: 22 nM

Question: What about the “Relative Selectivity versus PI3Kalpha” value (PI3Kalpha) of the same molecule?
Answer: >10

Question: `CCn1c(-c2cnc(C)nc2)nc2c(-c3ccc4c(c3)C(C)(Cc3ccccc3)N(C)C4=O)ncnc21` (single isomer, unassigned) [Compound 4-12, (R or S)-3-benzyl-5-[9-ethyl-8-(2-methylpyrimidin-5-yl)-9H-purin-6-yl]-2,3-dimethyl-2,3-dihydro-1H-isoindol-1-one] was tested. Which IC50 (PI3Kdelta) did it give?
Answer: 14 nM

Question: And the “Relative Selectivity versus PI3Kalpha” value (PI3Kalpha)?
Answer: >10

Question: What does the source list for `CCn1c(-c2cnc(C)nc2)nc2c(-c3ccc4oc(=O)n(C(C)c5ccccc5)c4c3)ncnc21` (single isomer, unassigned) [Compound 5-1, (R or S)-5-[9-ethyl-8-(2-methylpyrimidin-5-yl)-9H-purin-6-yl]-3-(1-phenylethyl)-1,3-benzoxazol-2(3H)-one]?
Answer: IC50 (PI3Kdelta): 14 nM; Relative Selectivity versus PI3Kalpha (PI3Kalpha): >10

Question: Which results are given for `CCn1c(-c2cnc(C)nc2)nc2c(-c3ccc4oc(=O)n(C(C)c5ccccc5)c4c3)ncnc21` (single isomer, unassigned) [Compound 5-2, (R or S)-5-[9-ethyl-8-(2-methylpyrimidin-5-yl)-9H-purin-6-yl]-3-(1-phenylethyl)-1,3-benzoxazol-2(3H)-one]?
Answer: IC50 (PI3Kdelta): 37 nM; Relative Selectivity versus PI3Kalpha (PI3Kalpha): >10

Question: For `CCn1c(-c2cnc(C)nc2)nc2c(-c3ccc4oc(=O)n(C(C)C5CC5)c4c3)ncnc21` (single isomer, unassigned) [Compound 5-5, (R or S)-3-(1-cyclopropylethyl)-5-[9-ethyl-8-(2-methylpyrimidin-5-yl)-9H-purin-6-yl]-1,3-benzoxazol-2(3H)-one], which IC50 (PI3Kdelta) is on record?
Answer: 42 nM

Question: What about the “Relative Selectivity versus PI3Kalpha” value (PI3Kalpha) of the same molecule?
Answer: >10

Question: What does the source list for `CCn1c(-c2cnc(C)nc2)nc2c(-c3ccc4oc(=O)n(C(C)C5CC5)c4c3)ncnc21` (single isomer, unassigned) [Compound 5-6, (R or S)-3-(1-cyclopropylethyl)-5-[9-ethyl-8-(2-methylpyrimidin-5-yl)-9H-purin-6-yl]-1,3-benzoxazol-2(3H)-one]?
Answer: IC50 (PI3Kdelta): 5 nM; Relative Selectivity versus PI3Kalpha (PI3Kalpha): >10

Question: What does the source list for `CCn1c(-c2cnc(C)nc2)nc2c(-c3ccc4[nH]c(=O)n(C(C)C5CC5)c4c3)ncnc21` (single isomer, unassigned) [Compound 5-7, (R or S)-1-(1-cyclopropylethyl)-6-[9-ethyl-8-(2-methylpyrimidin-5-yl)-9H-purin-6-yl]-1,3-dihydro-2H-benzimidazol-2-one]?
Answer: IC50 (PI3Kdelta): 3 nM; Relative Selectivity versus PI3Kalpha (PI3Kalpha): >10

Question: Which IC50 (PI3Kdelta) does the source give for `CCn1c(-c2cnc(C)nc2)nc2c(-c3ccc4[nH]c(=O)n(C(C)C5CC5)c4c3)ncnc21` (single isomer, unassigned) [Compound 5-8, (R or S)-1-(1-cyclopropylethyl)-6-[9-ethyl-8-(2-methylpyrimidin-5-yl)-9H-purin-6-yl]-1,3-dihydro-2H-benzimidazol-2-one] here?
Answer: 24 nM

Question: And the “Relative Selectivity versus PI3Kalpha” value (PI3Kalpha)?
Answer: >10

Question: `CCn1c(-c2cnc(C)nc2)nc2c(-c3ccc4oc(=O)n(C5CCOCC5)c4c3)ncnc21` [Compound 5-9, 5-(9-ethyl-8-(2-methylpyrimidin-5-yl)-9H-purin-6-yl)-3-(tetrahydro-2H-pyran-4-yl)benzo[d]oxazol-2(3H)-one] was tested. Which IC50 (PI3Kdelta) did it give?
Answer: 151 nM

Question: What about the “Relative Selectivity versus PI3Kalpha” value (PI3Kalpha) of the same molecule?
Answer: >10
